Patent publication US20220411448A1, “CHROMENE-4-ONE DERIVATIVES AS BRAIN-DERIVED NEUROTROPHIC FACTOR (BDNF) MIMETICS” (FLORATEK PHARMA AG, priority 2019, published 2022)

Assays:
[1] = test system: cortical neurons with MPP+ lesion; experiment: MPP+ induced ROS in cortical neurons (DCFDA); format: cell-based, mouse; conditions: 0.5 and 1 μM, 8 h MPP+ lesion
Experimental: (§1) Mouse cortical neurons were prepared as described. At DIV8 cells were treated with the test and control MK801 compounds for 1 h, before the addition of MPP+(Sigma, D048) at a final concentration of 100-200 μM. The experiment was carried out with n=6 technical replicates per condition, vehicle and MPP+ alone controls were included. After 8 h determination of ROS was conducted and after 24 h of MPP+ lesion on DIV9 cells were subject to the apoptosis measurement. Apoptosis was determined using YO-PRO™-1 Iodide (Invitrogen; Y3603). Part of supernatant of the cultivated cells was removed and 10 μL of a 50 μM YO-PRO 1 solution in PBS is added to the remaining 90 μL to result in a final concentration of 5 μM YO-PRO 1 in well. Incubation for 15 min in the incubator at 37° C. was performed (light protected) followed by discarding the supernatant. 140 μL PBS was added to each well and the fluorescence was measured using a plate-reader (Cytation 5, BioTek) at excitation wavelength 485 nm to Emission wavelength 535 nm.
ROS generation was measured with Abcam's DCFDA-Cellular Reactive Oxygen Species Detection Assay (ab 113851). […] Cells were then incubated with the test items and lesion for 8 h and thereafter the fluorescent signal was measured at 485 nm/535 nm (Cytation 5, BioTek).

TrkB receptor = experiment: Activation of TrkB receptor: phosphorylation in cortical neurons (WES capillary immunoassay); format: cell-based, mouse
Experimental: On the day of preparation (DIV1) cortical neurons were seeded on poly-D-lysine pre-coated 6-well plates at a density of 1.25*10^6 cells per well and cultured at 37° C.; 95% humidity and 5% CO2 until […] with a half medium exchange on DIV4-6. On DIV10 cells are treated with test item TI (SND118) and control Rh (7,8DHF) at different concentrations for 15 min. The experiment was carried out with n=6 technical replicates per condition, vehicle treated cells served as control. Cells were lysed in 150 μL cold RIPA buffer [50 mM Tris pH 7.4, 1% Nonidet P40, 0.25% Na-deoxy-cholate, 150 mM NaCl, 1 mM EDTA supplemented with freshly added 1 μM NaF, 0.2 mM Na-ortho-vanadate, 80 μM Glycerophosphate, protease (Calbiochem) and phosphatase (Sigma) inhibitor cocktail.
Phosphorylation of the TrkB receptor was detected using the following rabbit anti-Tyr specific antibodies: anti-TrkB Y515, Y706/707 and Y816 and compared with total TrkB detected with anti-TrkB antibody (Abcam). Antibody dilutions and protein amounts were optimized for signal specificity.
Automated separation and immunostaining of total and phospho TrkB was carried out using a capillary-based immunoassay, WES™ (Proteinsimple®). Samples were applied to a 25 capillary cartridge with a 2 to 440 kDa matrix, at an optimized total protein concentration. Sample loading, separation, immunoprobing, washing, detection and quantitative data analysis were performed automatically by WES™ Western system (Compass software V 4.0.0). The areas under the curve were used for the analysis and the phosphorylated versus vehicle or total TrkB signal ratio was calculated and used for statistics.

[2] = Metabolic stability in mouse liver microsomes; format: in vitro ADME; conditions: male, CD1, mouse, pooled liver microsomes, pH 7.4, 0.5 mg/ml protein, read-out: T1/2 LM mouse
Experimental: Sample type: pooled liver or intestine microsomes; Species: CD1-mouse (male), human (mixed gender) Time points: 0, 10, 20, 40, 60 min cofactors, and negative control;
Protein content: 0.5 mg/ml: Replicates: 2 with cofactors, 1 without cofactors; Cofactors: NADPH (1 mM)+UDPGA (1 mM)+15 μg/ml alamethicin Buffer: 0.1 M phosphate buffer pH 7.4, 2 mM MgCl2; Spiking solvent: 50% DMSO ( 1/100 to incubation); Quenching solvent: 2-fold volume of 75% ACN, Control: midazolam disappearance rate
The study compounds were incubated with liver or intestine microsomes as specified above. The collected samples were stored at −20 C until thawed at room temperature, centrifuged and analyzed as presented below.
The samples were analysed by UPLC/HR-MS (with data dependent MS/MS mode) to monitor substrate depletion (and later optionally metabolite formation). The analytical method was optimised by using the parent compound for optimum chromatographic properties (peak shape and retention) and mass spectrometric ionisation. Disappearance rate of the study compound was estimated based on relative LC/MS peak areas (o min marked as 100%), and was used to calculate in vitro half-life and clearance (and in vivo extrapolation of hepatic clearance).

[3] = test system: cortical neurons with MPP+ lesion; experiment: MPP+ induced apoptosis in cortical neurons (YO-PRO-1); format: cell-based, mouse; conditions: 0.5 and 1 μM, 24 h MPP+ lesion
Experimental: as §1

Cox (cytochrome oxidase) = experiment: Quantitative PCR of mitochondrial gene Cox; format: cell-based, mouse; conditions: 1 μM and 10 μM, 1 h and 2 h treatment
Experimental: The effect of Compound A or derivative thereof on the mRNA expression of genes related to plasticity (Arc, cFos, and Zif268) was determined as described. Cox (cytochrome oxidase) was used to evaluate if the derivative changes expression of mitochondrial genes.
Determination of gene expression was performed as previously described [Yang J, et al, Lactate promotes plasticity gene expression by potentiating NMDA signalling in neurons. Proc Natl Acad Sci USA. 2014. 111(33):12228-33]. Total RNA was isolated from cultured cells using Nucleospin RNA II kit (Macherey-Nagel) according to the manufacturer's instructions. The first strand of cDNA was synthesized from 100 ng of total RNA (60 min at 37° C. followed by 5 min at 95° C.) using a high-capacity RNA to cDNA reverse transcription system (Applied Biosystems). One-twentieth of the resulting cDNA was amplified by quantitative PCR (qPCR) with an ABI Prism 7900 system (Applied Biosystems). The PCR mix was composed of 6 ng of cDNA, 300 nM of forward and reverse primers in 10 μL of ix SYBR-Green PCR MasterMix (Applied Biosystems). Primer sequences were designed using Primer Express 3.0 software (Applied Biosystems) and oligonucleotides were synthesized by Microsynth.

## O=c1cc(-c2ccc(CCCC[P+](c3ccccc3)(c3ccccc3)c3ccccc3)cc2)oc2c(O)c(O)ccc12 [SND118, 4-[4-(7,8-dihydroxy-4-oxo-chromen-2-yl)phenyl]butyltriphenylphosphonium bromide]
[1]
  level of ROS induced by MPP+ (DCFDA): decreased the level of ROS
TrkB receptor
  phospho Tyr706/707 signal normalized to the TrkB: significant increase
TrkB receptor; 1 and 2 μM
  phosphorylation of the TrkB receptor at sites Tyr 515 and Tyr 816: induced statistically significant phosphorylation
TrkB receptor; SND118 2 μM
  phosphorylation of TrkB at Tyr residue 706/707 versus the vehicle: increased slightly
[2]
  half-life at 1 μM: 23 min
[3]
  apoptosis induced by MPP+ (YO-PRO-1): significantly inhibited apoptosis
Cox (cytochrome oxidase)
  mRNA expression of Cox (cytochrome oxidase): unaffected
